Measurements: patent US20250205135A1, “COMPOSICION DE EXTRACTOS VEGETALES PARA PALIAR LOS EFECTOS DEL ENVEJECIMIENTO O RETRASO DE LA SENESCENCIA CELULAR” (MONTELOEDER S.L., priority 2022, published 2025)

Test system: normal human dermal fibroblasts (NHDF)
Assay: MTT cell proliferation assay in fibroblasts pre-aged with H2O2
Type: cell-based
Details: EGF 20 ng/ml positive control, after 3 hours H2O2 (500 μM)
Experimental: For the cell proliferation assay, normal human dermal fibroblasts (NHDF) were exposed for 3 hours to conditioned ageing medium containing H2O2 (500 μM). After the incubation period, the medium was replaced with fresh medium containing composition A according to the invention at different concentrations for 96 hours. Epidermal growth factor (EGF, 20 ng/ml) was included as positive control and NHDF without pretreatment in H2O2 as non-aged control (Control). Cell viability was quantified using the MTT assay.

**Q.** For Epidermal growth factor [EGF], which “increase in cell viability compared to the aged control” value is on record?
**A.** +22.9%
